Data on two substances can be found in patent publication US10815283B2, “Peptides for treatment of diabetes” (Follicum AB, priority 2017, dated 2020).

“Also recorded” adds a separate entry of the source. No end group written: not given here.

Data set [1] concerns INS-1 cells. The data set can be described thus: Glucotoxicity-induced apoptosis in INS-1 cells (Annexin V staining, caspase-3 activity). As to conditions: 20 mM glucose, 48 h, vs 20 mM glucose alone. In kind it is cell-based, rat. How it is done: Since glucotoxicity in pancreatic β-cells is a well-established process in type 2 diabetes we next investigated the protective effects of FOL-005 on β-cells during glucotoxic conditions. First we confirmed that 20 mM glucose induced cell apoptosis in INS cells after 48 h of exposure. High glucose (20 mM) containing RPMI medium induced more Annexin V positive cells and more caspase-3 activity in INS cells compared to cells incubated with medium containing 5 mM glucose (FIG. 2A-B). […] The rate of apoptosis in INS-1 cells was measured with either Caspase-3 Assay Kit or stained with Annexin V Apoptosis Detection Kit with 7-AAD. Caspase-3 activity was measured with fluorescence at an excitation wavelength of 380 nm and an emission wavelength of 440 nm. Caspase-3 activity was then normalized to protein concentration in each well. Measurements of Annexin V stained cells were performed using a CyAn ADP flow cytometer and analyzed with Summit V4.3 software.

Data set [2] concerns INS-1 cells. The experiment in a line: Proliferation of INS-1 cells, [methyl-3H] thymidine incorporation. The class given is cell-based, rat. How it is done:
To investigate if FOL-005 and FOL-014 could induce proliferation of β-cells we used INS-1 cells. Rat INS-1 cells were seeded in 96-well plates in RPMI medium with supplement and after 2 hours the medium was changed to RPMI without supplement. During the proliferation experiment the cells were incubated at different test conditions (FOL-005, FOL-014, coated or in solution, 48 h incubation) and during the last 20 hours of culture period the cells were pulsed with 1μ Ci/well of [methyl-3H] thymidine. The cells were then harvested onto glass fiber filters using a FilterMate harvester. The filters were air dried, and the bound radioactivity was measured using a liquid scintillation counter. To study whether FOL-005 influenced β-cell proliferation, INS-1 cells were treated with increasing amounts of soluble FOL-005 (0.06-6 μM) during 48 hours and proliferation was measured with radiolabeled thymidine incorporation into newly synthesized DNA.
Background: Dividing cells build labelled thymidine or BrdU into new DNA.

The subject of the next data set is mouse pancreatic islets. The data set can be described thus: Insulin secretion from isolated mouse pancreatic islets (Examples 5 and 7). The class given is cell-based. As to conditions: 60 min. The method, then:
Mouse pancreatic islets were isolated from 8-week old C57BL/6J male mice (Taconic). Mice were sacrificed by an overdose of isoflurane and cervical dislocation. 3 ml of 0.9 U/ml collagenase P was injected into the pancreatic duct to inflate the pancreas. The pancreas was then removed and collagen digested for 19 min at 37° C. The samples were vigorously shaken to disrupt the tissue. The digest was transferred into ice cold Hank's Balanced Salt Solution (HBSS) with Ca^2+ and Mg^2+. The suspension was allowed to sit for 10 min to allow the islet to sink, and the islets were washed in fresh HBSS four times. The islets were then hand-picked and sorted according to size. Islets (n=3 per well in a 96 well plate) were pre-incubated in KRB buffer during 10 min 37° C., pH 7.4, supplemented with 10 mM HEPES, 0.1% bovine serum albumin. After pre-incubation, the buffer was changed and islets were incubated at different test conditions in new KRB buffer with 0.1% bovine serum albumin (non-treated ctrl, FOL-005 peptide, or GLP-1) for 60 min at 37° C. Immediately after incubation, an aliquot of the buffer was removed and frozen for subsequent assay of insulin.
Mouse pancreatic islets were isolated from 8-week old C57BL/6J male mice as described under example 5. The islets were then hand-picked and sorted according to size. Islets (n=5 per well in a 96 well plate) were pre-incubated in 200 μl KRB buffer during 10 min 37° C., pH 7.4, supplemented with 10 mM HEPES, 0.1% bovine serum albumin. Following pre-incubation, the buffer was changed and islets were incubated in different test conditions in new KRB buffer with 0.1% bovine serum albumin (non-treated ctrl, FOL-014 peptide, and GLP-1) for 60 min at 37° C. Immediately after incubation, an aliquot of the buffer was removed and frozen for subsequent assay of insulin.

In another data set the test system is INS-1 β-cells. The data set can be described thus: Insulin secretion from INS-1 cells, insulin radioimmunoassay (Examples 4 and 6). The class given is cell-based, rat. As to conditions: peptide 6 μM, 60 min. How it is done: To investigate the stimulatory effect of FOL-005 on insulin secretion, INS-1 β-cells were used in the following experiments. Cells were seeded overnight in cRPMI and then washed with PBS before pre-incubation for 60 min at 37° C. in Krebs-Ringer bicarbonate buffer (KRB), pH 7.4, supplemented with 10 mM HEPES, 0.1% bovine serum albumin. After pre-incubation, the buffer was changed and the INS-1 cells were incubated at different test conditions (0 mM, 5 mM or 20 mM glucose) and stimulated with peptide FOL-005 or FOL-015 (SEQ ID NO: 158) or left untreated during 60 min at 37° C. Immediately after incubation, an aliquot of the buffer was removed and frozen for subsequent assay of insulin with an insulin radioimmunoassay kit.
INS-1 β-cells were used to investigate the stimulatory effect of FOL-014 on insulin secretion. Cells were seeded overnight and then washed with PBS before pre-incubation for 60 min at 37° C. in Krebs-Ringer bicarbonate buffer (KRB), pH 7.4, supplemented with 10 mM HEPES, 0.1% bovine serum albumin. After pre-incubation, the buffer was changed and the INS-1 cells were incubated in new KRB buffer supplemented with 10 mM HEPES, 0.1% bovine serum albumin and stimulated with peptide FOL-014 or left untreated during 60 min at 37° C. Immediately after incubation, an aliquot of the buffer was removed and frozen for subsequent assay of insulin.

Data set [3] is described as follows: In vivo bio-distribution of Cy7.5 labelled peptides, Pearl Trilogy Small Animal Imaging System. As to conditions: Cy7.5 labelled peptide. Details: species or system mouse.
Data set [4] in a line: Distribution of H3 labelled peptide, whole body sectioning. The class given is in vivo, mouse. The conditions noted are these: subcutaneous, C57Bl/6 mice, 1 h and 2 h after injection. How it is done:
C57Bl/6 mice were injected subcutaneously with H^3 labelled FOL-005 and euthanized at 1 h (FIG. 12A) or 2 h (FIG. 12B) after injection. Following whole body sectioning the distribution of the labelled peptide was visualised. […] Using Pearl Trilogy Small Animal Imaging System, in vivo bio-distribution and tissue localization of two Cy7.5 labelled peptides, FOL-005 (FIG. 12C) and FOL-014 (FIG. 12D) in NMRI nude mice via subcutaneous injection was investigated. […] The dose of each peptide was 10 nmol per mouse. The mice were imaged before injection, at 5 min, 20 min, 50 min, 60 min, 2 hrs, 4 hrs, 6 hrs, 24 hrs and 48 hrs post administration of labelled peptide.

Another data set has as its system isolated mouse islets. The data set can be described thus: Insulin and glucagon secretion from isolated mouse islets at low and high glucose (Example 12). In kind it is cell-based. The conditions noted are these: 100 nM GLP-1, 1 h. The method, then: Twelve-week-old male C57/bl6 mice were euthanized with isoflurane and cervical dislocation. After clamping the hepatic ducts, 3 ml of 0.9 U/ml collagenase P was injected into the bile duct to inflate the pancreas. The pancreas was then removed and digested for 19 min at 37° C. The samples were vigorously shaken to disrupt the tissue. The digest was quickly transferred into ice cold Hank's Balanced Salts Solution with Ca^2+ and Mg^2+. The suspension was allowed to sit for 8 min to allow the islet to sink, and the islets were washed in the same manner four times. The islets were then handpicked and sorted according to size.
Freshly isolated islets were seeded in groups of 5 in a 96-well plate and preincubated for 1 h at 37° C. in a Krebs-Ringer bicarbonate buffer (pH 7.4). The islets were incubated for 1 h at 37° C. in Krebs-Ringer buffered solution supplemented with 0.6 or 6 μM FOL-014 or 100 nM GLP-1 or left unsupplemented for control. Immediately after incubation, the medium was removed for assays of insulin and glucagon using Mercodia's ELISA kits. The effect of FOL-014 on insulin (FIGS. 8A and B) and glucagon (FIGS. 8C and D) secretion from isolated mouse islets was measured in the presence of low glucose (2.8 mM; FIGS. 8A and C) or high glucose (16.7 mM; FIGS. 8B and D) concentrations.

For the substance “VDTYDGDISVVYGLR ((1)..(15) peptide, FOL-005)”, the “cell apoptosis, Annexin V staining” value in the data set on INS-1 cells [1] was “decreased cell apoptosis”. The “cell apoptosis, caspase-3 activity” value in the data set with INS-1 cells [1] was “decreased cell apoptosis”. For the same substance, the “INS-1 cell proliferation (radiolabeled thymidine incorporation)” value is recorded as “stimulated INS-1 cell proliferation” in the data set on INS-1 cells [2] (soluble peptide 0.06-6 μM, 48 hours); “stimulated proliferation compared to control (ctrl) coated wells” in the data set on INS-1 cells [2] (wells coated with peptide and blocked with BSA, vs control coated wells). Moreover, the insulin secretion result in the data set on mouse pancreatic islets (Example 5, 3 islets per well, peptide 6 μM) is listed as “secreted more insulin compared to unstimulated control islets”; in the data set with INS-1 β-cells (5 mM glucose), “responded with insulin secretion”; in the data set on INS-1 β-cells (20 mM glucose), “responded with more insulin secretion compared to FOL-005 stimulated cells incubated with 5 mM glucose”; in the data set on INS-1 β-cells (conditions without glucose), “secreted more insulin compared to unstimulated control cells”. The “bio-distribution and tissue localization” value is on record as “same distribution pattern” in data set [3] (i.v. administration (not shown)) and “High accumulation of the peptide was evident in the pancreatic tissue area” in data set [3] (subcutaneous, 10 nmol per mouse, NMRI nude mice, 5 min to 48 hrs). Further, the “tissue distribution of radioactivity” value in data set [4] is “Strong binding was evident in pancreas and at the site of injection; also recorded: also visible in liver, kidney, salivary glands”.

Regarding “glucagon-like peptide-1 (HAEGTFTSDVSSYLEGQAAKEFIAWLVKGR; ends and bridges not checked; UniProt P01275 98-127, looked up) [GLP-1, metabolic hormone that stimulates insulin secretion; native GLP-1 used as comparator]”, the values for the glucagon secretion entry with isolated mouse islets (high glucose (16.7 mM)) and in the data set with isolated mouse islets (low glucose (2.8 mM)) were “efficiently reduced glucagon secretion” and “failed to inhibit glucagon secretion in low glucose conditions”, respectively. Besides, the insulin secretion result is listed as “significantly increased insulin secretion” with isolated mouse islets (high glucose (16.7 mM)); “enhanced insulin secretion also in low glucose samples” in the data set with isolated mouse islets (low glucose (2.8 mM)); “secreted more insulin compared to unstimulated control islets” in the data set with mouse pancreatic islets (Example 5, 3 islets per well, GLP-1 100 nM); “did not affect insulin secretion” with mouse pancreatic islets (Example 7, 5 islets per well, GLP-1 100 nM).
